Laboratory results reported in patent US20090239880A1, “COMBINATIONS OF MONOAMINE REUPTAKE INHIBITORS AND POTASSIUM CHANNEL ACTIVATORS” (priority 2006, published 2009).
Counter-ions that a name gives are not always drawn.

biological target: SK3 channels (Homo sapiens, UniProt Q9UGI6); experiment: inhibition of SK3 channels in patchclamp electrophysiology (selectivity over monoamine reuptake in vitro); assay type: cell-based; details: patchclamp electrophysiology vs [3H]DA, [3H]5-HT and [3H]NA reuptake in vitro

| selectivity for inhibition of SK3 channels over inhibiton of [3H]DA, [3H]5-HT and [3H]NA reuptake | SMILES |
| --- | --- |
| more than 100 fold | N=c1n(Cc2ccc(F)c(F)c2)c2ccccc2n1Cc1ccc(F)c(F)c1 [test compound, 1,3-Bis-(3,4-difluoro-benzyl)-1,3-dihydro-benzoimidazol-2-ylideneamine] |

test system: NMRI mice; experiment: nialamide induced 5-HT syndrome paradigm; assay type: in vivo; details: nialamide 50 mg/kg s.c. at -120 min, test compound 0.3-3 mg/kg i.p. combined with sub-threshold citalopram 1 mg/kg p.o. at 0 min
Method: Method: Mice were administered nialamide (50 mg/kg, s.c., −120 min) followed by the test compound (0.3-3 mg/kg, i.p.) and citalopram (1 mg/kg, p.o) at time-point 0 min. The presence of head twitches, hindlimb abduction, head weaving, and piano playing behaviours were then scored by a trained observer using a recognised rating scale: maximum score/mouse=4, minimum score/mouse=0.

| SMILES | effect on ability of citalopram to induce symptoms analagous to the serotonin syndrome (5-HT syndrome score) |
| --- | --- |
| N=c1n(Cc2ccc(F)c(F)c2)c2ccccc2n1Cc1ccc(F)c(F)c1 [test compound, 1,3-Bis-(3,4-difluoro-benzyl)-1,3-dihydro-benzoimidazol-2-ylideneamine] | enhanced the ability of the latter to induce symptoms analagous to the serotonin syndrome |

test system: NMRI mice; experiment: reversal of tetrabenazine-induced ptosis; assay type: in vivo; details: test compound 0.3-3 mg/kg i.p. combined with sub-threshold reboxetine 0.1 mg/kg p.o. at -60 min, tetrabenazine 40 mg/kg i.p. at -30 min
Method: Method: Mice were administered the test compound (0.3-3 mg/kg, i.p.) and reboxetine (0.1 mg/kg, p.o.) at timepoint −60 min, followed by tetrabenazine (40 mg/kg, i.p., −30 min). The presence of ptosis was then scored by a trained observer using a recognised rating scale: maximum score/mouse=4, minimum score/mouse=0.

| SMILES | effect on ability of reboxetine to reverse tetrabenazine-induced ptosis (ptosis score) |
| --- | --- |
| N=c1n(Cc2ccc(F)c(F)c2)c2ccccc2n1Cc1ccc(F)c(F)c1 [test compound, 1,3-Bis-(3,4-difluoro-benzyl)-1,3-dihydro-benzoimidazol-2-ylideneamine] | enhanced the ability of the latter to reverse tetrabenazine-incuced ptosis |

test system: not given; experiment: not given; details: not given

| SMILES | melting point |
| --- | --- |
| OC(c1ccccc1)(c1ccccc1)C1CCN(c2nc3ccccc3[nH]2)CC1 [Example 3, [1(1H-Benzoimidazol-2-yl)-piperidin-4-yl]diphenylmethanol] | 237 to 239 °C |
| FC(F)(F)c1cc(Cn2c(N3CCC(Cc4ccccc4)CC3)nc3ccccc32)ccc1Cl [Example 4, 2-(4-Benzylpiperidin-1-yl)-1-[4-chloro-3-(trifluoromethyl)benzyl]-1H-benzoimidazole] | 124 to 125.5 °C |
| Fc1ccc(Cn2c(N3CCC(Cc4ccccc4)CC3)nc3ccccc32)cc1F [Example 5, 2-(4-Benzylpiperidin-1-yl)-1-(3,4-difluorobenzyl)-1H-benzoimidazole] | 155 to 155.5 °C |
| Clc1ccc(CC2CCN(c3nc4ccccc4[nH]3)CC2)cc1Cl (as salt: salt) [Example 1, 2-[4-(3,4-Dichlorobenzyl)piperidin-1-yl]-1H-benzoimidazole] | 268 to 270 °C |
| c1ccc(CC2CCN(c3nc4ccccc4[nH]3)CC2)cc1 [Example 2, 2-(4-Benzylpiperidin-1-yl)-1H-benzoimidazole] | 193 to 194 °C |

More lines, now with the values ahead:

| melting point | SMILES |
| --- | --- |
| 297 to 298 °C | Clc1ccc(OC2CCN(c3nc4ccccc4[nH]3)CC2)cc1Cl (as salt: hydrochloride) [Example 10, 2-[4-(3,4-Dichlorophenoxy)piperidin-1-yl]-1H-benzoimidazole] |
| 256 to 258 °C | c1ccc(C(c2ccccc2)C2CCN(c3nc4ccccc4[nH]3)CC2)cc1 [Example 13, 2-(4-Benzhydryl-piperidin-1-yl)-1H-benzoimidazole] |
| > 230 °C (dec.) | c1ccc(C(c2ccccc2)N2CCN(c3nc4ccccc4[nH]3)CC2)cc1 [Example 6, 2-(4-Benzhydrylpiperazin-1-yl)-1H-benzoimidazole] |
| > 240 °C (dec.) | Fc1ccc(C(c2ccc(F)cc2)N2CCN(c3nc4ccccc4[nH]3)CC2)cc1 (as salt: hydrochloride) [Example 9, 2-{4-[Bis-(4-fluorophenyl)methyl]piperazin-1-yl}-1H-benzoimidazole] |
| 229 to 230 °C | c1ccc(C(=C2CCN(c3nc4ccccc4[nH]3)CC2)c2ccccc2)cc1 [Example 12, 2-(4-Benzhydrylidene-piperidin-1-yl)-1H-benzoimidazole] |
